# Like-named read-outs stand apart in the source and are kept apart here.
# Tests used:
# BChE = target: T1, BChE (Homo sapiens, UniProt P06276); assay: BChE inhibition assay (Ellman method with slight modifications); format: biochemical; details: for inhibition at 500 µM: read-out: BChE Inhibition, Inhibition (%) at 0.5 mM
# T1 construct: purchased Sigma Inc
# Method: (§1) The AChE and BChE inhibition activity was performed according to the method of Ellman with slight modifications. Total volume of the reaction mixture was 100 µL contained 60 µL Na2HPO4 buffer with concentration of 50 mM and pH 7.7. A 10 µL test compound (0.5 mM per well) was added, followed by the addition of 10 µL enzyme (0.005 unit AChE, 0.5 unit BChE per well, Sigma Inc). […] The reaction was initiated by the addition of 10 µL of 0.5 mM per well substrate (acetylthiocholine iodide or butyrylthiocholine bromide), followed by the addition of 10 µL DTNB (0.5 mM per well). […] Synergy HT (BioTek, USA) 96-well plate reader was used in all experiments. All experiments were carried out with their respective controls in triplicate. […] The percent inhibition was calculated by the help of following equation.
# (§2) Inhibition%=Control−Test/Control×100
# AChE = target: T2, AChE (Homo sapiens, UniProt P22303); assay: biochemical; format: biochemical; details: for inhibition at 500 µM: read-out: AChE Inhibition, Inhibition (%) at 0.5 mM
# T2 construct: purchased Sigma Inc
# Method: as §1, §2
# [1] = 0.5 mM test compound, mean with SEM
# [2] = mean with SEM, read-out: BChE Inhibition, IC50
# [3] = mean with SEM, read-out: AChE Inhibition, IC50
# T2 sequence (P22303 32-614): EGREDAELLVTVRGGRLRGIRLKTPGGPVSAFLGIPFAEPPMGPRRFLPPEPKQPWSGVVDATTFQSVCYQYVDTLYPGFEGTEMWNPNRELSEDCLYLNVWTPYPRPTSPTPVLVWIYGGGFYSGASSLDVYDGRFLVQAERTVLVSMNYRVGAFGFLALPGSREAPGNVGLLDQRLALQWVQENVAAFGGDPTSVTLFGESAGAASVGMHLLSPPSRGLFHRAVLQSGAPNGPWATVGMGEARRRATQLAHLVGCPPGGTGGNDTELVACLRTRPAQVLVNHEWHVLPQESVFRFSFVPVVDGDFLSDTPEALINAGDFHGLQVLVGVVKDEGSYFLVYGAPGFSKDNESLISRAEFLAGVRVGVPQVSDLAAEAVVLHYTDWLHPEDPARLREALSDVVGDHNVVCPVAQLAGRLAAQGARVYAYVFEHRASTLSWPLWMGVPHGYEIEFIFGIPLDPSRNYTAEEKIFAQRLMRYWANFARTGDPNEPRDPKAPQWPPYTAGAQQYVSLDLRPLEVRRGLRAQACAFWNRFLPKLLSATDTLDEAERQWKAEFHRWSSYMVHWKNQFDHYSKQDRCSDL
# T1 sequence (P06276 29-602): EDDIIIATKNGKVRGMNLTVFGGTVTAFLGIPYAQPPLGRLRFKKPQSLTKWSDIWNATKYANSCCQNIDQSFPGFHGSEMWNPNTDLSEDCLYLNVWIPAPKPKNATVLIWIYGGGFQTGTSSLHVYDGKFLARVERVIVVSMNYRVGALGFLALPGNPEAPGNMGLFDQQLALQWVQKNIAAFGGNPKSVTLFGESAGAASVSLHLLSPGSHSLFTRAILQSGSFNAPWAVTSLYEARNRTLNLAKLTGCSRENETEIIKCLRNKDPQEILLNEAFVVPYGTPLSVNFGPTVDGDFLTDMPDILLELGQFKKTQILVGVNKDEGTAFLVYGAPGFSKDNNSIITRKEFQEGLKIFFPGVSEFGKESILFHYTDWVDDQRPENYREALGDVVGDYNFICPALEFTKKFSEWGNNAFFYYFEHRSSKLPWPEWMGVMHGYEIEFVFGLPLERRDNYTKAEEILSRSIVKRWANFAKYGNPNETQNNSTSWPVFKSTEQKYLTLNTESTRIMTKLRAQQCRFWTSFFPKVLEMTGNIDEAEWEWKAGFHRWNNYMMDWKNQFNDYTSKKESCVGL
SMILES,inhibition at 500 µM (BChE; [1]) [%],IC50 (BChE; [2]) [µM],inhibition at 500 µM (AChE; [1]) [%],IC50 (AChE; [3]) [µM],inhibitory activity against BChE (in words) (BChE),IC50 (BChE) [µM],inhibition at 500 µM (BChE) [%],IC50 (AChE) [µM],inhibition at 500 µM (AChE) [%],inhibitory activity against AChE (in words) (AChE)
"O=C(Cc1c[nH]c2ccccc12)NNS(=O)(=O)c1ccc(Br)cc1 [Compound 6e, N'-(2-(1H-indol-3-yl)acetyl)-4-bromobenzenesulfonohydrazide]",81.02 ± 0.14,73.52 ± 0.04,90.78 ± 0.32,68.52 ± 0.04,,,,,,
C/C(=N\NC(=O)Cc1c[nH]c2ccccc12)c1ccccc1 [Compound 4e],68.43 ± 0.18,146.21 ± 0.08,66.86 ± 0.36,174.51 ± 0.11,,,,,,
O=C(Cc1c[nH]c2ccccc12)N/N=C/c1ccccc1O [Compound 4b],43.16 ± 0.18,,75.5 ± 0.33,103.11 ± 0.05,weak,,,,,
"O=C(Cc1c[nH]c2ccccc12)NNC(=O)C(F)(F)F [Compound 5b, N'-(2-(1H-indol-3-yl)acetyl)-2,2,2-trifluoroacetohydrazide]",86.64 ± 0.24,68.91 ± 0.07,75.22 ± 0.41,152.31 ± 0.07,,,,,,
NNC(=O)Cc1c[nH]c2ccccc12 [Compound 3],,,,,,139.21 ± 0.07,73.95 ± 0.67,152.11 ± 0.07,69.16 ± 0.25,
Cc1ccc(/C=N/NC(=O)Cc2c[nH]c3ccccc23)cc1 [Compound 4d],43.6 ± 0.55,,79.54 ± 0.54,98.81 ± 0.14,weak,,,,,
"O=C(Cc1c[nH]c2ccccc12)NNS(=O)(=O)c1cccc([N+](=O)[O-])c1 [Compound 6c, N'-(2-(1H-Indol-3-yl)acetyl)-3-nitrobenzenesulfonohydrazide]",81.24 ± 0.52,78.51 ± 0.21,56.21 ± 0.25,,,,,,,weak
"O=C(Cc1c[nH]c2ccccc12)NNC(=O)Oc1ccccc1 [Compound 5c, Phenyl 2-(2-(1H-indol-3-yl)acetyl)hydrazinecarboxylate]",,,,,weak,,39.29 ± 0.25,,55.91 ± 0.33,weak
O=C(Cc1c[nH]c2ccccc12)N/N=C/c1ccccc1 [Compound 4a],79.58 ± 0.42,86.31 ± 0.14,63.11 ± 0.52,198.61 ± 0.14,,,,,,
"CC(=O)NNC(=O)Cc1c[nH]c2ccccc12 [Compound 5a, N'-acetyl-2-(1H-indol-3-yl)acetohydrazide]",90.81 ± 0.69,55.21 ± 0.12,60.52 ± 0.25,298.61 ± 0.15,,,,,,
"O=C(Cc1c[nH]c2ccccc12)NNS(=O)(=O)c1ccccc1[N+](=O)[O-] [Compound 6b, N'-(2-(1H-Indol-3-yl)acetyl)-2-nitrobenzenesulfonohydrazide]",42.61 ± 0.42,,46.41 ± 0.21,,weak,,,,,weak
COc1ccc(/C=N/NC(=O)Cc2c[nH]c3ccccc23)cc1 [Compound 4c],50.2 ± 0.69,,75.5 ± 0.56,109.6 ± 0.11,,,,,,
O=C(Cc1c[nH]c2ccccc12)NN=C(c1ccccc1)c1ccccc1 [Compound 4f],89.51 ± 0.69,59.81 ± 0.06,89.3 ± 0.91,91.21 ± 0.06,,,,,,
O=C(Cc1c[nH]c2ccccc12)N/N=C/c1ccc(Cl)cc1 [Compound 4g],30.1 ± 0.58,,75.79 ± 0.25,106.51 ± 0.07,,,,,,
"Cc1ccc(S(=O)(=O)NNC(=O)Cc2c[nH]c3ccccc23)cc1 [Compound 6a, N'-(2-(1H-Indol-3-yl)acetyl)-4-methylbenzenesulfonohydrazide]",72.52 ± 0.33,101.2 ± 0.16,78.11 ± 0.36,121.4 ± 0.16,,,,,,
"O=C(Cc1c[nH]c2ccccc12)NNS(=O)(=O)c1ccc([N+](=O)[O-])cc1 [Compound 6d, N'-(2-(1H-Indol-3-yl)acetyl)-4-nitrobenzenesulfonohydrazide]",63.69 ± 0.61,< 400,58.62 ± 0.52,,,,,,,weak
COC(=O)Cc1c[nH]c2ccccc12 [Compound 2],59.82 ± 0.15,184.2 ± 0.21,70.61 ± 0.34,138.5 ± 0.21,,,,,,

# Source: article PMC3977535, “Design and Synthesis of New Dual Binding Site Cholinesterase Inhibitors: in vitro Inhibition Studies with in silico Docking” (Letters in Drug Design & Discovery, 2014)
